Data from paper PMC11233931, “Remodeling tumor‐associated macrophage for anti‐cancer effects by rational design of irreversible inhibition of mitogen‐activated protein kinase‐activated protein kinase 2” (MedComm, 2024).

Assays:
Assay in all cases: Eurofins kinase selectivity profile against 380 other human recombinant kinases (Table S2)
Format in all cases: biochemical
[1] = target: T1, 380 human recombinant protein kinases (Homo sapiens, UniProt Q8IVH8); conditions: MAP4K3(h), read-out: Inhibition rate
T1 construct: purchased Eurofins (Celle Lévescault)
T1 sequence (Q8IVH8 1-894): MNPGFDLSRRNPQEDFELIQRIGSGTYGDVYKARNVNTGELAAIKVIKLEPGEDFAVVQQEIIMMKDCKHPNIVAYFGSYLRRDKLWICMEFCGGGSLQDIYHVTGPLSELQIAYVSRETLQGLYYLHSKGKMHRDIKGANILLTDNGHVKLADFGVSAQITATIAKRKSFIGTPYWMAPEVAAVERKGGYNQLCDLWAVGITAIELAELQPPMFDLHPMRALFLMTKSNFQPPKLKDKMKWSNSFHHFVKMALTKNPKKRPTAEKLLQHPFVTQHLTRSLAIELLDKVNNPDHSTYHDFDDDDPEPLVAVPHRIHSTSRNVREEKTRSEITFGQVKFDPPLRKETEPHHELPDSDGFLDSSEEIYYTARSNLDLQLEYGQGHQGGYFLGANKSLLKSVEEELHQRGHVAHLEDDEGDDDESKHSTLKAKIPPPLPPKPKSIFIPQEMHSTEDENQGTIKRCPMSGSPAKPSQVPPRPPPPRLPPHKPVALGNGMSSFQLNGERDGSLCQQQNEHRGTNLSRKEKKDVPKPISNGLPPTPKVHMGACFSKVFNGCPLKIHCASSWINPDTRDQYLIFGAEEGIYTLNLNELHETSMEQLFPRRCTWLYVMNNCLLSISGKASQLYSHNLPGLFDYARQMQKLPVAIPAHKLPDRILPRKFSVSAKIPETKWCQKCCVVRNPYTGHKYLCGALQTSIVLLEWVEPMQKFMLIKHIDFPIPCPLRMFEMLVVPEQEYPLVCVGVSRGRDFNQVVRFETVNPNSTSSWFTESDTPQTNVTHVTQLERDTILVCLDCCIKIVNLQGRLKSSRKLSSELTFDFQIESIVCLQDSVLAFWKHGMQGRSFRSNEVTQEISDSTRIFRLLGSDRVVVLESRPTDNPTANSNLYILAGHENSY
How it was run: (§1)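 Off-target profiling: one compound assayed by a commercial provider over 380 recombinant human protein kinases at various concentrations.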

[2] = target: T2, 380 human recombinant protein kinases (Homo sapiens, UniProt Q9Y3S1); conditions: WNK2(h), read-out: Inhibition rate (%)
T2 construct: purchased Eurofins (Celle Lévescault)
How it was run: as §1

[3] = target: T3, 380 human recombinant protein kinases (Homo sapiens, UniProt O43293); conditions: ZIPK(h), read-out: Inhibition rate (%)
T3 construct: purchased Eurofins (Celle Lévescault)
How it was run: as §1

[4] = target: T4, 380 human recombinant protein kinases (Homo sapiens, UniProt Q9Y6E0); conditions: MST3(h), read-out: Inhibition rate
T4 construct: purchased Eurofins (Celle Lévescault)
How it was run: as §1

[5] = target: T5, 380 human recombinant protein kinases (Homo sapiens, UniProt Q00536); conditions: CDK16/cyclinY(h), read-out: Inhibition rate
T5 construct: purchased Eurofins (Celle Lévescault)
How it was run: as §1

[6] = target: T6, 380 human recombinant protein kinases (Homo sapiens, UniProt Q96RR4); conditions: CaMKK2(h), read-out: Inhibition rate
T6 construct: purchased Eurofins (Celle Lévescault)
How it was run: as §1

[7] = target: T7, 380 human recombinant protein kinases (Homo sapiens, UniProt P42685); conditions: PTK5(h), read-out: Inhibition rate
T7 construct: purchased Eurofins (Celle Lévescault)
How it was run: as §1

[8] = target: T8, 380 human recombinant protein kinases (Homo sapiens, UniProt Q9BXA7); conditions: TSSK1(h), read-out: Inhibition rate (%)
T8 construct: purchased Eurofins (Celle Lévescault)
T8 sequence (Q9BXA7 1-367): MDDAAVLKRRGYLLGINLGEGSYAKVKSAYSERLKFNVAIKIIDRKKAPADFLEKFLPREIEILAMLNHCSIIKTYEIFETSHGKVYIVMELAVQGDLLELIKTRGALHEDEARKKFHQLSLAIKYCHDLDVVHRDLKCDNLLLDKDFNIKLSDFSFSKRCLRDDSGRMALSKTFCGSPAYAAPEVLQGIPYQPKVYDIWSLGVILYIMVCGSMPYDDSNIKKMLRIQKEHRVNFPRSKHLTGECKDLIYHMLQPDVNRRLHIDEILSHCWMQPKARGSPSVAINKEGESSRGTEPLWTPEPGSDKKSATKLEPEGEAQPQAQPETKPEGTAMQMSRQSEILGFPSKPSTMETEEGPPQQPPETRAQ
How it was run: as §1

[9] = target: T9, 380 human recombinant protein kinases (Homo sapiens, UniProt Q99986); conditions: VRK1(h), read-out: Inhibition rate (%)
T9 construct: purchased Eurofins (Celle Lévescault)
T9 sequence (Q99986 1-396): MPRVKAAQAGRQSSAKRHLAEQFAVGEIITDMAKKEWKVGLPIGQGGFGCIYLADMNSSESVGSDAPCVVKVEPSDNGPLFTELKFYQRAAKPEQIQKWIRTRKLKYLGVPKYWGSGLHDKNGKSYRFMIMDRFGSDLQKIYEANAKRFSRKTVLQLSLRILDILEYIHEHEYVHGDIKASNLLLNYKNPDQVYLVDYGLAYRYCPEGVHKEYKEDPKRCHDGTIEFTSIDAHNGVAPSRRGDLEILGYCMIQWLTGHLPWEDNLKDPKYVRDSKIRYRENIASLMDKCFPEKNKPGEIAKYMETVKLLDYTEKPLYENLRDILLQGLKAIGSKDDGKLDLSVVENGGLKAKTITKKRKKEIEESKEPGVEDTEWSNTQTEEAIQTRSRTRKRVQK
How it was run: as §1

T4 sequence (Q9Y6E0 whole entry): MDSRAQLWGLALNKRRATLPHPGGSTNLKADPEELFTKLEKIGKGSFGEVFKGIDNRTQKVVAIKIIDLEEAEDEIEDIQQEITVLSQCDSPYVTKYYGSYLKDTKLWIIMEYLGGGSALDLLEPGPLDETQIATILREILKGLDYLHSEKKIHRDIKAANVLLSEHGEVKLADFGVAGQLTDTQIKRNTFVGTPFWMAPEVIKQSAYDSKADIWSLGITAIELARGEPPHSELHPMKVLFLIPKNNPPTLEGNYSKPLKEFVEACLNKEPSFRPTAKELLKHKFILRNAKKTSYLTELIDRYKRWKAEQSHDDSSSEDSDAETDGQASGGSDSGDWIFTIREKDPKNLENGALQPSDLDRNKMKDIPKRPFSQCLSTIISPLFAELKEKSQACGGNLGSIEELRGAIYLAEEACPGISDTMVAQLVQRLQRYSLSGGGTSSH
T6 sequence (Q96RR4 whole entry): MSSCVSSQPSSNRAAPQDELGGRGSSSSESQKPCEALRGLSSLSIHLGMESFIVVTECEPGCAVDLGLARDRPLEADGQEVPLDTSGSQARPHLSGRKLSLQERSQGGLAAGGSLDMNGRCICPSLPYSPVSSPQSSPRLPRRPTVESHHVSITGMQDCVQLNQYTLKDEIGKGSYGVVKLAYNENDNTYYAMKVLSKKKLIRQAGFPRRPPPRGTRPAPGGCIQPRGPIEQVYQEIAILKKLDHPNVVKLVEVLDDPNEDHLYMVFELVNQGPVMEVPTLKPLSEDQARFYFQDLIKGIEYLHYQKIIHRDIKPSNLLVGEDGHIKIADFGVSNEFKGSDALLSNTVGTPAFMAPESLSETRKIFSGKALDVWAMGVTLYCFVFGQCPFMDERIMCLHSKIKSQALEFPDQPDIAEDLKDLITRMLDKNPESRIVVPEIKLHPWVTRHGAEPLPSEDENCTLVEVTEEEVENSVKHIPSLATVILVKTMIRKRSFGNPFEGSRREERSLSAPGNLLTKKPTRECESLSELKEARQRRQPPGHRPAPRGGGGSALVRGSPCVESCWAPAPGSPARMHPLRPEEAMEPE
T2 sequence (Q9Y3S1 whole entry): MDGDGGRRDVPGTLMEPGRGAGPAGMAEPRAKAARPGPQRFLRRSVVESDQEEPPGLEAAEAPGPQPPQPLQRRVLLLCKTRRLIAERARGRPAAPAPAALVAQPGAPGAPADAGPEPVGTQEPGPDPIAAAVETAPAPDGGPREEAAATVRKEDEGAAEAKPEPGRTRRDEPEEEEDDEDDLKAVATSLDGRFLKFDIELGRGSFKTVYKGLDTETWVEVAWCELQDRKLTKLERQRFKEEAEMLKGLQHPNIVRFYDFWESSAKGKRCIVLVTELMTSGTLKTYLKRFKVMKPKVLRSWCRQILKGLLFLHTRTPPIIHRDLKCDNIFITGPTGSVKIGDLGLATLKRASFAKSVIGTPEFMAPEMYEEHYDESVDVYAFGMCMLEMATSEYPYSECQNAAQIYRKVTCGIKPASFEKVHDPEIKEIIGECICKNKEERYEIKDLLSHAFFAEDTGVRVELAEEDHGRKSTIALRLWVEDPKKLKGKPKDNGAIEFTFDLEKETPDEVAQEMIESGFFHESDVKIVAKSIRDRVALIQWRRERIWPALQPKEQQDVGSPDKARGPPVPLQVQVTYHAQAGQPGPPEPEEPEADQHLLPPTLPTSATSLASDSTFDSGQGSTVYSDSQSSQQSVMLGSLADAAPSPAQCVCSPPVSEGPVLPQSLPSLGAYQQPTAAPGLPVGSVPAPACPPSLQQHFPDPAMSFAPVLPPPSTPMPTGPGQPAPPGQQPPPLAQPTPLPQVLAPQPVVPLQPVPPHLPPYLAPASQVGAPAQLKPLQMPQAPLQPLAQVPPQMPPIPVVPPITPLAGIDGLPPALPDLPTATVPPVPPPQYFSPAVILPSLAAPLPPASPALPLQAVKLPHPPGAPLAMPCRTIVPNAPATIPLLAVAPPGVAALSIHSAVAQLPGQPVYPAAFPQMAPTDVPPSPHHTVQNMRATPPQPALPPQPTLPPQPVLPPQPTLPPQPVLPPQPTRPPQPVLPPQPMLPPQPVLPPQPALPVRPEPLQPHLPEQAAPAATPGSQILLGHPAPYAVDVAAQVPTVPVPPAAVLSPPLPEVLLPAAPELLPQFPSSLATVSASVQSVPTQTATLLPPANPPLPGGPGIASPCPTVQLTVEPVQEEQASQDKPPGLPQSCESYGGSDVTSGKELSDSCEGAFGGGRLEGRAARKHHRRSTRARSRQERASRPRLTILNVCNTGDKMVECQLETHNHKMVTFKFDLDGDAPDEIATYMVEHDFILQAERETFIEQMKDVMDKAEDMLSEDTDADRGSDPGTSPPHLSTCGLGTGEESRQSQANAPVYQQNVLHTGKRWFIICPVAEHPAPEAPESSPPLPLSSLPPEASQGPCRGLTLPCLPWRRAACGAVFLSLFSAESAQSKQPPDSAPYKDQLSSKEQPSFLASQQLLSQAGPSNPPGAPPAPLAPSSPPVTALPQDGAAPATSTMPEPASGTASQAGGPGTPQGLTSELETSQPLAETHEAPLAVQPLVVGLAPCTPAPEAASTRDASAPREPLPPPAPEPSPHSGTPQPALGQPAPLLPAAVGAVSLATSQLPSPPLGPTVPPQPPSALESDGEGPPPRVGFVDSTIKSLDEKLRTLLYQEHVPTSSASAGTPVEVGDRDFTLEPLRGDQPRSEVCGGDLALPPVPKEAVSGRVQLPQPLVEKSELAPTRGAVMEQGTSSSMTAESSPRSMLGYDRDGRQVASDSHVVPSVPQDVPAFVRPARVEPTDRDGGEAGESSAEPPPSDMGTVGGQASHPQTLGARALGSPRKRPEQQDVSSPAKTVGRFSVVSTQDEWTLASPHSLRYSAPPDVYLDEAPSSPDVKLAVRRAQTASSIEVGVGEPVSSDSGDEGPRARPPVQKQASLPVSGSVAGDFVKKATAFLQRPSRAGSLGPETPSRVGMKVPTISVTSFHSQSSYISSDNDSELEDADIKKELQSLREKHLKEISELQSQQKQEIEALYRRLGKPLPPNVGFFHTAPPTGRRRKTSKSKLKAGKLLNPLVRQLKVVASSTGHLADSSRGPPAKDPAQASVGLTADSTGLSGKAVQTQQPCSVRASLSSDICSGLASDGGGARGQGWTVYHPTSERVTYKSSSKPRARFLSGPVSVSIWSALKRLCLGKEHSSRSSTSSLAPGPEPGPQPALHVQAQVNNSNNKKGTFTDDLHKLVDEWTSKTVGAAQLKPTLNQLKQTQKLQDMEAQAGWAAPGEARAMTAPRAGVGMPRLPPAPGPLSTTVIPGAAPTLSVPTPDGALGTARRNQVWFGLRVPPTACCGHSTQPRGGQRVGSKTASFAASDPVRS
T5 sequence (Q00536 whole entry): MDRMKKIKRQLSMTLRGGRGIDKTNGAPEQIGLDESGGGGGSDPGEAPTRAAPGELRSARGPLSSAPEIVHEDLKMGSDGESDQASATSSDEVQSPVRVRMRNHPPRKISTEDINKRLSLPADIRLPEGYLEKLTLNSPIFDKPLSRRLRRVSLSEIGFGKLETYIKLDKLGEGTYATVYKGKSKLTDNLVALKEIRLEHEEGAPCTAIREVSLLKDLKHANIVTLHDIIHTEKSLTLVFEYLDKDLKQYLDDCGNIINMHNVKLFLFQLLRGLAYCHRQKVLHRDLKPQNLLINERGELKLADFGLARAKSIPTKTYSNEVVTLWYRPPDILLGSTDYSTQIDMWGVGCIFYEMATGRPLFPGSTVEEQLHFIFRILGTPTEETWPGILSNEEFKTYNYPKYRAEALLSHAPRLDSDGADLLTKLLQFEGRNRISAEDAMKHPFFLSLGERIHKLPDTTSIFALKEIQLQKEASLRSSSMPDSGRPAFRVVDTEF
T7 sequence (P42685 whole entry): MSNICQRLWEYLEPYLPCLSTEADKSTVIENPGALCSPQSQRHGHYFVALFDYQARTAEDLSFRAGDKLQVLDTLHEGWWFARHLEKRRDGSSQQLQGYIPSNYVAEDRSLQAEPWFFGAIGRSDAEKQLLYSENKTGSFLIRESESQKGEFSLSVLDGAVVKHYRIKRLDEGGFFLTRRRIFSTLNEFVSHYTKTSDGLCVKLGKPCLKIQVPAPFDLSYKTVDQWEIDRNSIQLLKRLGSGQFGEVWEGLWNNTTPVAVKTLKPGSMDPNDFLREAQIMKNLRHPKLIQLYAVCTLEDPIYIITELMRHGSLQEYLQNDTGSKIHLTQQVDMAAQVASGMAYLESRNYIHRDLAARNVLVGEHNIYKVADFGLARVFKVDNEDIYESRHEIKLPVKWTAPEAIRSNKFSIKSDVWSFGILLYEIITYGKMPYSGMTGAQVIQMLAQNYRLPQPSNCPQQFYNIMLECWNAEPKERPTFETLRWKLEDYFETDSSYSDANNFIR
T3 sequence (O43293 whole entry): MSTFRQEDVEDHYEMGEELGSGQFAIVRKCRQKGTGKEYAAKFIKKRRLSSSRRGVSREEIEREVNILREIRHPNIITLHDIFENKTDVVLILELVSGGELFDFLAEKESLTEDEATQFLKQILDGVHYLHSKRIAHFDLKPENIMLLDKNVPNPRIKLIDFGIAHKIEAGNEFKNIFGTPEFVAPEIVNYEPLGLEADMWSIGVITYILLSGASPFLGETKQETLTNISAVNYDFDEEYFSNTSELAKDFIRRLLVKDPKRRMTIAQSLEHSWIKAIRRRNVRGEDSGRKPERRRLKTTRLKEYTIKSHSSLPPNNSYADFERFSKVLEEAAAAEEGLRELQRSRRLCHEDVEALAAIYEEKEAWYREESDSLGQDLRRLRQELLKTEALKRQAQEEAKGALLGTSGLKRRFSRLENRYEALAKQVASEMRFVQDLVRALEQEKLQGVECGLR

Compound `C=CC(=O)Nc1cc(-c2cc(-c3cc4c([nH]3)CCNC4=O)ccn2)ccc1OC(F)(F)F` [compound 11] has an inhibition at 0.01 µM ([1]; 10 nM) of -8%, an inhibition at 0.1 µM ([1]; 100 nM) of -4% and an inhibition at 1 µM ([1]; 1000 nM) of 3%. For the same compound, the inhibition at 0.01 µM ([2]; 10 nM) was 11%, the inhibition at 0.1 µM ([2]; 100 nM) was 19% and the inhibition at 1 µM ([2]; 1000 nM) was 17%. The inhibition at 0.01 µM ([3]; 10 nM) was 4%, the inhibition at 0.1 µM ([3]; 100 nM) was 8% and the inhibition at 1 µM ([3]; 1000 nM) was 15%. For the same compound, the inhibition at 0.01 µM ([4]; 10 nM) was -6%, the inhibition at 0.1 µM ([4]; 100 nM) was 2% and the inhibition at 1 µM ([4]; 1000 nM) was 2%. The inhibition at 0.01 µM ([5]; 10 nM) was -1%, the inhibition at 0.1 µM ([5]; 100 nM) was 7% and the inhibition at 1 µM ([5]; 1000 nM) was -13%. For the same compound, the inhibition at 0.01 µM ([6]; 10 nM) was -9%, the inhibition at 0.1 µM ([6]; 100 nM) was -1% and the inhibition at 1 µM ([6]; 1000 nM) was 38%. The inhibition at 0.01 µM ([7]; 10 nM) was -7%, the inhibition at 0.1 µM ([7]; 100 nM) was 6% and the inhibition at 1 µM ([7]; 1000 nM) was 5%. For the same compound, the inhibition at 0.01 µM ([8]; 10 nM) was 1%, the inhibition at 0.1 µM ([8]; 100 nM) was 2% and the inhibition at 1 µM ([8]; 1000 nM) was 7%. The inhibition at 0.01 µM ([9]; 10 nM) was 1%, the inhibition at 0.1 µM ([9]; 100 nM) was 1% and the inhibition at 1 µM ([9]; 1000 nM) was 5%.
